# Test results published in patent US20260294915A1, “COMBINATION THERAPY COMPRISING A MAT2A INHIBITOR AND A TOPOISOMERASE INHIBITOR, A SPLICING INHIBITOR SULFONAMIDE, OR A KIF18 INHIBITOR” (IDEAYA BIOSCIENCES, INC., priority 2023, published 2026).
# Marks after values point to notes of the source that are not given here.
# Experiments:
# Experiment in all cases: 10-day proliferation (CTG), SPLAM titration + 1000 nM Compound A, Bliss (Example 5; Tables 12-19)
# Type in all cases: cell-based
# Design in all cases: key: GDI scale -100 to 100; 0 = cell number at T0; <0 cytotoxic
# RT112/84 = conditions: for GDI (growth death index), single agent Cmpd A: RT112/84, 1000 nM Compound A
# Protocol: (§1) Synergy was measured across the Indisulam titration with 1000 nM Compound A by Bliss Independence analysis. Bliss scores >10 are indicated by “*” and are considered synergistic. […] Synergy as reported using Bliss may be underrepresented within cytotoxic dose ranges. Growth death index values are shown for the combination titration and each single agent Compound A (Cmpd A) and Indisulam on a scale of −100 to 100 with the midpoint (0) being the number of cells at the beginning of the combination (T0). Scores less than 0 are indicated with “**” and are representative of a cytotoxic response. Bliss and GDI values are shown for five MTAP-deficient cell lines: NCI-1H838 (12A), SW900 (12B), RT112/84 (12C), UMUC5 (121D), and UMUC11 (12E).
# (§2) A 10-day proliferation assay was performed in a panel of 5 MTAP-deficient and 2 wild type non-small cell lung and bladder cancer cell lines. Optimal cell seeding for all cell lines was determined by assessing the growth over a range of seeding densities in a 384-well format to identify conditions that permitted proliferation for 10 days. Cells were then plated at the optimal seeding density and treated with 20-point, two-fold dilution series of each of four structurally different SPLAMs in combination with a 1000 nM fixed concentration of Compound A. Single agent titrations for Compound A and each SPLAM were included for comparison. Concentrations tested for each SPLAM alone or in combination ranged from 0.04 nM to 20,000 nM. A plate of cells was harvested at the time of compound addition to quantify the number of cells at the start of the combination (T0). For cell quantification, the harvested cells were lysed with Promega CellTiter-Glo (CTG) reagent according to the manufacturer's protocol and the chemiluminescent signal was detected as described in Example 1 above. Cells were incubated with the drug combinations at 37° C. with 5% CO2 for 10 days. Cells were then lysed with CTG and the chemiluminescent signal was measured.
# (§3) CTG values obtained after the 10-day treatment were background subtracted and expressed as a percent of the T0 value set at 100%. Data were plotted against compound concentration and fit with a four-parameter equation to generate single agent dose response curves. Percent inhibition was determined for each combination and single agent concentration compared to a DMSO control. In addition, the overall net growth or death of the cells was calculated and reported as a growth death index (GDI) value on a scale of −100 to 100 with the midpoint (0) being the number of cells at the beginning of the combination (T0).
# (§4) Predicted inhibition was calculated using (Ea+Eb)−(Ea*Eb) where E equals the effect (inhibition) of each single agent (a and b). A difference between the observed inhibition percentage and the predicted inhibition percentage greater than 10% was considered synergistic. A Bliss score was only reported for combinations eliciting >20% growth inhibition (GDI value <80). Since Bliss is calculated based on growth inhibition, scores within cytotoxic dose ranges may not accurately reflect synergistic cytoxicity.
# (§5) Synergy was measured across the E7820 titration with 1000 nM Compound A by Bliss Independence analysis. Bliss scores >10 are indicated by “*” and are considered synergistic. […] Synergy as reported using Bliss may be underrepresented within cytotoxic dose ranges. Growth death index values are shown for the combination titration and each single agent Compound A (Cmpd A) and Indisulam on a scale of −100 to 100 with the midpoint (0) being the number of cells at the beginning of the combination (T0). Scores less than 0 are indicated by “**” and are representative of a cytotoxic response. Bliss and GDI values are shown for five MTAP-deficient cell lines: NCI-1H838 (14A), SW900 (14B), RT112/84 (14C), UMUC5 (141)), and UMUC11 (14E).
# (§6) Synergy was measured across the Chloroquinoxaline Sulfonamide titration with 1000 nM Compound A by Bliss Independence analysis.
# SW900 = conditions: for GDI: alone or + 1 uM Cmpd A; for GDI (growth death index), single agent Cmpd A: SW900, 1000 nM Compound A
# Protocol: as §1, §2, §3, §4, §5, §6
# UMUC11 = conditions: for GDI (growth death index), single agent Cmpd A: UMUC11, 1000 nM Compound A
# Protocol: as §1, §2, §3, §4, §5, §6
# UMUC5 = conditions: for GDI (growth death index), single agent Cmpd A: UMUC5, 1000 nM Compound A
# Protocol: as §1, §2, §3, §4, §5, §6
# [1] = SPLAM 0.04 nM, alone or + 1 uM Cmpd A
# [2] = SPLAM 0.1 nM, alone or + 1 uM Cmpd A
# [3] = SPLAM 0.2 nM, alone or + 1 uM Cmpd A
# [4] = SPLAM 0.3 nM, alone or + 1 uM Cmpd A
# [5] = SPLAM 0.6 nM, alone or + 1 uM Cmpd A
# [6] = SPLAM 1.2 nM, alone or + 1 uM Cmpd A
# [7] = SPLAM 2.4 nM, alone or + 1 uM Cmpd A
# [8] = SPLAM 4.9 nM, alone or + 1 uM Cmpd A
# [9] = SPLAM 9.8 nM, alone or + 1 uM Cmpd A
# [10] = SPLAM 19.5 nM, alone or + 1 uM Cmpd A
# [11] = SPLAM 39.1 nM, alone or + 1 uM Cmpd A
# [12] = SPLAM 78.1 nM, alone or + 1 uM Cmpd A
# [13] = SPLAM 156.3 nM, alone or + 1 uM Cmpd A
# [14] = SPLAM 312.5 nM, alone or + 1 uM Cmpd A
# [15] = SPLAM 625 nM, alone or + 1 uM Cmpd A
# [16] = SPLAM 1250 nM, alone or + 1 uM Cmpd A
# [17] = SPLAM 2500 nM, alone or + 1 uM Cmpd A
# [18] = SPLAM 5000 nM, alone or + 1 uM Cmpd A
# [19] = SPLAM 10000 nM, alone or + 1 uM Cmpd A
# [20] = SPLAM 20000 nM, alone or + 1 uM Cmpd A
structure (smiles),measurement,setting,value
"NS(=O)(=O)c1ccc(S(=O)(=O)Nc2cccc3c(Cl)c[nH]c23)cc1 [Indisulam, N-(3-chloro-1H-indol-7-yl)benzene-1,4-disulfonamide]",GDI,RT112/84; [1],98
same,GDI,RT112/84; [2],100
same,GDI,RT112/84; [3],100
same,GDI,RT112/84; [4],100
same,GDI,RT112/84; [5],96
same,GDI,RT112/84; [6],95
same,GDI,RT112/84; [7],100
same,GDI,RT112/84; [8],100
same,GDI,RT112/84; [9],100
same,GDI,RT112/84; [10],100
same,GDI,RT112/84; [11],100
same,GDI,RT112/84; [12],100
same,GDI,RT112/84; [13],99
same,GDI,RT112/84; [14],44
same,GDI,RT112/84; [15],12
same,GDI,RT112/84; [16],−34**
same,GDI,RT112/84; [17],−76**
same,GDI,RT112/84; [18],−63**
same,GDI,RT112/84; [19],−74**
same,GDI,RT112/84; [20],−92**
same,GDI,SW900; SPLAM 0.04 nM,100
same,GDI,SW900; SPLAM 0.1 nM,98
same,GDI,SW900; SPLAM 0.2 nM,94
same,GDI,SW900; SPLAM 0.3 nM,100
same,GDI,SW900; SPLAM 0.6 nM,100
same,GDI,SW900; SPLAM 1.2 nM,100
same,GDI,SW900; SPLAM 2.4 nM,100
same,GDI,SW900; SPLAM 4.9 nM,100
same,GDI,SW900; SPLAM 9.8 nM,100
same,GDI,SW900; SPLAM 19.5 nM,100
same,GDI,SW900; SPLAM 39.1 nM,100
same,GDI,SW900; SPLAM 78.1 nM,100
same,GDI,SW900; SPLAM 156.3 nM,100
same,GDI,SW900; SPLAM 312.5 nM,34
same,GDI,SW900; SPLAM 625 nM,−3**
same,GDI,SW900; SPLAM 1250 nM,−33**
same,GDI,SW900; SPLAM 2500 nM,−61**
same,GDI,SW900; SPLAM 5000 nM,−56**
same,GDI,SW900; SPLAM 10000 nM,−58**
same,GDI,SW900; SPLAM 20000 nM,−60**
same,GDI,UMUC11; [1],100
same,GDI,UMUC11; [2],100
same,GDI,UMUC11; [3],100
same,GDI,UMUC11; [4],100
same,GDI,UMUC11; [5],100
same,GDI,UMUC11; [6],100
same,GDI,UMUC11; [7],100
same,GDI,UMUC11; [8],100
same,GDI,UMUC11; [9],100
same,GDI,UMUC11; [10],100
same,GDI,UMUC11; [11],100
same,GDI,UMUC11; [12],100
same,GDI,UMUC11; [13],100
same,GDI,UMUC11; [14],73
same,GDI,UMUC11; [15],35
same,GDI,UMUC11; [16],13
same,GDI,UMUC11; [17],5
same,GDI,UMUC11; [18],2
same,GDI,UMUC11; [19],2
same,GDI,UMUC11; [20],1
same,GDI,UMUC5; [1],100
same,GDI,UMUC5; [2],100
same,GDI,UMUC5; [3],100
same,GDI,UMUC5; [4],100
same,GDI,UMUC5; [5],100
same,GDI,UMUC5; [6],98
same,GDI,UMUC5; [7],100
same,GDI,UMUC5; [8],100
same,GDI,UMUC5; [9],100
same,GDI,UMUC5; [10],100
same,GDI,UMUC5; [11],100
same,GDI,UMUC5; [12],100
same,GDI,UMUC5; [13],94
same,GDI,UMUC5; [14],69
same,GDI,UMUC5; [15],26
same,GDI,UMUC5; [16],5
same,GDI,UMUC5; [17],3
same,GDI,UMUC5; [18],3
same,GDI,UMUC5; [19],2
same,GDI,UMUC5; [20],2
Nc1nc(=O)n(-c2ccccc2Cl)c2nc(C(F)(F)F)ccc12 [Compound A],"GDI (growth death index), single agent Cmpd A",RT112/84; Table 16C,62
same,"GDI (growth death index), single agent Cmpd A",RT112/84; Table 18C,62
same,GDI,"RT112/84; single agent Cmpd A, 1000 nM",62
same,"GDI (growth death index), single agent Cmpd A",SW900; Table 16B,100
same,"GDI (growth death index), single agent Cmpd A",SW900; Table 18B,100
same,"GDI (growth death index), single agent Cmpd A",UMUC11; Table 16E,100
same,"GDI (growth death index), single agent Cmpd A",UMUC11; Table 18E,100
same,GDI,"UMUC11; single agent Cmpd A, 1000 nM",100
same,"GDI (growth death index), single agent Cmpd A",UMUC5; Table 16D,58
same,"GDI (growth death index), single agent Cmpd A",UMUC5; Table 18D,58
same,GDI,"UMUC5; single agent Cmpd A, 1000 nM",58
